Experiments:
Assay in all cases: Test D pre-/postemergence plant response
Format in all cases: in vivo
Settings in all cases: Postemergence
[1] = tested on: Russian thistle (Salsola kali)
Outline: (§1)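 Visual 0–100 scoring (100 = complete control) versus untreated controls after 14–21 greenhouse days. Compounds, formulated in surfactant-containing non-phytotoxic solvent, were applied preemergence to seeded loam/sand and postemergence to 2–18 cm plants (1–4 leaves).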

[2] = tested on: Surinam grass (Brachiaria decumbens)
Outline: as §1

[3] = tested on: barnyardgrass (Echinochloa crus-galli)
Outline: as §1

[4] = tested on: bermudagrass (Cynodon dactylon)
Outline: as §1

[5] = tested on: bluegrass (annual bluegrass, Poa annua)
Outline: as §1

[6] = tested on: chickweed (common chickweed, Stellaria media)
Outline: as §1

[7] = tested on: dallisgrass (Paspalum dilatatum)
Outline: as §1

[8] = tested on: dayflower (Virginia (VA) dayflower, Commelina virginica)
Outline: as §1

[9] = tested on: goosegrass (Eleusine indica)
Outline: as §1

[10] = tested on: green foxtail (Setaria viridis)
Outline: as §1

[11] = tested on: itchgrass (Rottboellia cochinchinensis)
Outline: as §1

[12] = tested on: johnsongrass (Sorghum halepense)
Outline: as §1

kochia (Kochia scoparia) = tested on: kochia (Kochia scoparia)
Outline: as §1

[13] = tested on: mallow (common mallow, Malva sylvestris)
Outline: as §1

[14] = tested on: purslane (common purslane, Portulaca oleracea)
Outline: as §1

[15] = tested on: signalgrass (broadleaf signalgrass, Brachiaria platyphylla)
Outline: as §1

[16] = tested on: sowthistle (common sowthistle, Sonchus oleraceous)
Outline: as §1

[17] = tested on: spanishneedles (Bidens bipinnata)
Outline: as §1

[18] = 62 g ai/ha, scale 0 to 100 (0 no effect, 100 complete control)
[19] = 125 g ai/ha, scale 0 to 100 (0 no effect, 100 complete control)
[20] = 250 g ai/ha, scale 0 to 100 (0 no effect, 100 complete control)

SMILES: CCCCn1c(-c2cc(F)cc(F)c2)ncc(C(=O)C2=C(O)C3CCC(C3)C2=O)c1=O (stereo not drawn) [Compound 245]
- Plant response rating, Russian Thistle ([1]; 31 g ai/ha, scale 0 to 100): 25
- Plant response rating, Russian Thistle [1, 18]: 60
- Plant response rating, Russian Thistle [1, 19]: 60
- Plant response rating, Russian Thistle [1, 20]: 70
- Plant response rating, Surinam Grass ([2]; 31 g ai/ha, scale 0 to 100): 75
- Plant response rating, Surinam Grass [2, 18]: 75
- Plant response rating, Surinam Grass [2, 19]: 75
- Plant response rating, Surinam Grass [2, 20]: 75
- Plant response rating, Barnyardgrass ([3]; 31 g ai/ha, scale 0 to 100): 80
- Plant response rating, Barnyardgrass [3, 18]: 85
- Plant response rating, Barnyardgrass [3, 19]: 85
- Plant response rating, Barnyardgrass [3, 20]: 90
- Plant response rating, Bermudagrass ([4]; 31 g ai/ha, scale 0 to 100): 80
- Plant response rating, Bermudagrass [4, 18]: 80
- Plant response rating, Bermudagrass [4, 19]: 80
- Plant response rating, Bermudagrass [4, 20]: 80
- Plant response rating, Bluegrass ([5]; 31 g ai/ha, scale 0 to 100): 5
- Plant response rating, Bluegrass [5, 18]: 20
- Plant response rating, Bluegrass [5, 19]: 35
- Plant response rating, Bluegrass [5, 20]: 35
- Plant response rating, Chickweed ([6]; 31 g ai/ha, scale 0 to 100): 5
- Plant response rating, Chickweed [6, 18]: 25
- Plant response rating, Chickweed [6, 19]: 50
- Plant response rating, Chickweed [6, 20]: 50
- Plant response rating, Dallisgrass ([7]; 31 g ai/ha, scale 0 to 100): 65
- Plant response rating, Dallisgrass [7, 18]: 75
- Plant response rating, Dallisgrass [7, 19]: 80
- Plant response rating, Dallisgrass [7, 20]: 85
- Plant response rating, Dayflower, VA ([8]; 31 g ai/ha, scale 0 to 100): 20
- Plant response rating, Dayflower, VA [8, 18]: 35
- Plant response rating, Dayflower, VA [8, 19]: 65
- Plant response rating, Dayflower, VA [8, 20]: 75
- Plant response rating, Goosegrass ([9]; 31 g ai/ha, scale 0 to 100): 70
- Plant response rating, Goosegrass [9, 18]: 70
- Plant response rating, Goosegrass [9, 19]: 70
- Plant response rating, Goosegrass [9, 20]: 75
- Plant response rating, Foxtail, Green ([10]; 31 g ai/ha, scale 0 to 100): 85
- Plant response rating, Foxtail, Green [10, 18]: 90
- Plant response rating, Foxtail, Green [10, 19]: 95
- Plant response rating, Foxtail, Green [10, 20]: 95
- Plant response rating, Itchgrass ([11]; 31 g ai/ha, scale 0 to 100): 70
- Plant response rating, Itchgrass [11, 18]: 70
- Plant response rating, Itchgrass [11, 19]: 75
- Plant response rating, Itchgrass [11, 20]: 75
- Plant response rating, Johnsongrass ([12]; 31 g ai/ha, scale 0 to 100): 70
- Plant response rating, Johnsongrass [12, 18]: 75
- Plant response rating, Johnsongrass [12, 19]: 75
- Plant response rating, Johnsongrass [12, 20]: 75
- Plant response rating, Kochia (kochia (Kochia scoparia); 31 g ai/ha, scale 0 to 100): 50
- Plant response rating, Kochia (kochia (Kochia scoparia); [18]): 65
- Plant response rating, Kochia (kochia (Kochia scoparia); [19]): 70
- Plant response rating, Kochia (kochia (Kochia scoparia); [20]): 75
- Plant response rating, Mallow ([13]; 31 g ai/ha, scale 0 to 100): 35
- Plant response rating, Mallow [13, 18]: 50
- Plant response rating, Mallow [13, 19]: 50
- Plant response rating, Mallow [13, 20]: 70
- Plant response rating, Purslane ([14]; 31 g ai/ha, scale 0 to 100): 0
- Plant response rating, Purslane [14, 18]: 5
- Plant response rating, Purslane [14, 19]: 30
- Plant response rating, Purslane [14, 20]: 30
- Plant response rating, Signalgrass ([15]; 31 g ai/ha, scale 0 to 100): 10
- Plant response rating, Signalgrass [15, 18]: 40
- Plant response rating, Signalgrass [15, 19]: 50
- Plant response rating, Signalgrass [15, 20]: 75
- Plant response rating, Sowthistle ([16]; 31 g ai/ha, scale 0 to 100): 95
- Plant response rating, Sowthistle [16, 18]: 95
- Plant response rating, Sowthistle [16, 19]: 95
- Plant response rating, Sowthistle [16, 20]: 95
- Plant response rating, Spanishneedles ([17]; 31 g ai/ha, scale 0 to 100): 65
- Plant response rating, Spanishneedles [17, 18]: 70
- Plant response rating, Spanishneedles [17, 19]: 70
- Plant response rating, Spanishneedles [17, 20]: 75

Reference: patent publication US8952024B2, “Herbicidal pyrimidone derivatives” (E I du Pont de Nemours and Company, priority 2009, dated 2015)
